Experimental data published in PMC12677653, “Inhibition of Tumor Lipogenesis and Growth by Peptide‐Based Targeting of SREBP Activation” (Advanced Science, 2025).
Residues, ends and D or L forms follow the SMILES beside them.

What was measured:
[1] = tested on: Huh7 cells; assay: Cellular peptide uptake, western blot; format: in vitro ADME, human; settings: biotin-labeled peptide 15 μM, 30 min, TAT versus TAT-LOF sequence
Experimental: d) Huh7 cells were incubated for 30 min with biotin-labeled Insig1/2 loop1 peptide (15 μM), either with TAT or TAT loss of function (TAT-LOF) sequence, with subsequent western blot analysis of cellular peptide uptake.

[2] = tested on: lipid accumulation in tumor tissues; assay: Oil Red O staining of tumor tissues; format: in vivo, BALB/c athymic nude mice; settings: cryosections of Huh7 tumors, n = 4; peptide given as LNP 10 mg/kg iv; lenvatinib mesylate 2 mg/kg oral
Experimental: (§1) Representative micrographs are shown (scale bar: 20 µm). b,c) Cryosections of mouse tumor tissues were prepared for histological analysis. (b) Lipid accumulation was assessed by Oil Red O staining. Representative micrographs are shown (scale bar: 20 µm). (c) Apoptotic cells were detected by TUNEL assay. Representative micrographs are shown (scale bar: 20 µm). d,e) Quantitative analysis of (d) apoptotic areas (TUNEL‐positive regions) and (e) lipid droplet counts (Oil Red O‐positive particles) was performed. Data represent the mean ± SD (n = 4). Statistical significance was determined by one‐way analysis of variance (ANOVA). ** p < 0.01, **** p < 0.0001, ns, no significance.
Cryosections 6–8 µm in thickness were air‐dried and fixed with formaldehyde for 5–10 min. Then, the slides were placed in absolute propylene glycol for 2–5 min and stained with 0.5% Oil red O dye. After staining, the slides were rinsed, counterstained with Mayer's hematoxylin for 1 min, and mounted in glycerin.

[3] = tested on: tumor cell apoptosis; assay: TUNEL assay of tumor tissues; format: in vivo, BALB/c athymic nude mice; settings: cryosections of Huh7 tumors, n = 4; peptide given as LNP 10 mg/kg iv; lenvatinib mesylate 2 mg/kg oral
Experimental: as §1
Mouse tumor tissues were sectioned at 5 µm thickness. Apoptotic cells were counted using the colorimetric TUNEL System (Beyotime, C1091) according to the manufacturer's instructions. The total numbers of apoptotic cells were counted in six high‐power fields and presented as an average number of apoptotic cells per high‐power fields.

[4] = tested on: Insig1 pS207/Insig2 pS151, SREBP1, Ki67; assay: IHC analysis of mouse tumors derived from Huh7 cells; format: in vivo, BALB/c athymic nude mice; settings: peptide given as LNP@Insig1/2 loop 1 peptide 10 mg/kg iv, lenvatinib mesylate 2 mg/kg oral
Experimental: as §1
As described previously,^[ [39] ^] IHC staining was performed using the Vectastain ABC kit (Vector Laboratories) according to the manufacturer's instructions. Sections of paraffin‐embedded xenograft tumors were stained with antibodies against Ki67, SREBP1, Insig1 pS207/Insig2 pS151, and nonspecific IgG was used as a negative control. Paraffin‐embedded human liver tumor sections were stained with antibodies against Ki67, SREBP1, Insig1 pS207/Insig2 pS151, with nonspecific IgG as a negative control. The tissue sections were quantitatively scored according to the percentage of positive cells and staining intensity. […] The intensity of staining was rated on a scale of 0 to 3: 0, negative; 1, weak; 2, moderate; and 3, strong. The study then combined the proportion and intensity scores to obtain a total score (range, 0–8).

[5] = biological target: T1, WT GST-PCK1 (human, UniProt P35558 1-622, biotin (G-MM-IGT Biotinylation kit)); assay: BLI
T1 chain: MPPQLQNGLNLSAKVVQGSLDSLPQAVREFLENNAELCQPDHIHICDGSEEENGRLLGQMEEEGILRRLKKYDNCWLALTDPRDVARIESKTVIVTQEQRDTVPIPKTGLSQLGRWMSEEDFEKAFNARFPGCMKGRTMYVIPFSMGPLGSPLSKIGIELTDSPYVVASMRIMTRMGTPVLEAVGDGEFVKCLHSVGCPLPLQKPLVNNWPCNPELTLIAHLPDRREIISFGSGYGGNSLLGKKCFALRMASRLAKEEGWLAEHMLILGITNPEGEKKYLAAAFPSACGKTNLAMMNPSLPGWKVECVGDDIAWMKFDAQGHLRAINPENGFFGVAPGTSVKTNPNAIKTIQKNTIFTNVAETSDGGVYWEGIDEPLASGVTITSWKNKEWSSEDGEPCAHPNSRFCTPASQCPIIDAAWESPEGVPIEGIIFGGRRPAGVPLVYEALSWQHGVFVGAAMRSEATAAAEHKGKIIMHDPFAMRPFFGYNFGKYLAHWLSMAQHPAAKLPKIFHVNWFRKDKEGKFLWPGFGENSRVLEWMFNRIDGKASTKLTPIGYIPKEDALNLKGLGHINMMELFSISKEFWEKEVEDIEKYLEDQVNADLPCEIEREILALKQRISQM

[6] = biological target: T2, S90-phosphorylated GST-PCK1 (human, UniProt P35558 1-622, phosphoserine at 90; biotin (G-MM-IGT Biotinylation kit)); assay: BLI; phosphorylated S90
T2 chain: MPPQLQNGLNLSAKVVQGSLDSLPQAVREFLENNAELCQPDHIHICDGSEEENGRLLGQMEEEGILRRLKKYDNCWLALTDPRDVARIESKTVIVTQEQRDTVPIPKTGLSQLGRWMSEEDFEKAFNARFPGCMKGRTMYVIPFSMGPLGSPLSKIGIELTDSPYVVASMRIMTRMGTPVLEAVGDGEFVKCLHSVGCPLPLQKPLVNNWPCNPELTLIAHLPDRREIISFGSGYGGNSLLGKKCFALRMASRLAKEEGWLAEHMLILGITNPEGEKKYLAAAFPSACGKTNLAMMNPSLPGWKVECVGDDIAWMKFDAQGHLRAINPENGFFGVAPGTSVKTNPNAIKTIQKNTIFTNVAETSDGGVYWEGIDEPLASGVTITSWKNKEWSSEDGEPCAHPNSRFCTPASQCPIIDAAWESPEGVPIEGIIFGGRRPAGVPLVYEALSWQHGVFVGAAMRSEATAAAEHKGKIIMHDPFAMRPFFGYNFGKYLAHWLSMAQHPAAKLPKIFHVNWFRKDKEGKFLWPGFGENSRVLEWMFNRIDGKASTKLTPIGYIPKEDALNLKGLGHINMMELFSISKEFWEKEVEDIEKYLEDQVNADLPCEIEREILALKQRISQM

`CC[C@H](C)[C@H](NC(=O)[C@H](CS)NC(=O)[C@@H]1CCCN1C(=O)[C@H](Cc1ccc(O)cc1)NC(=O)[C@H](CC(C)C)NC(=O)CCCC[C@@H]1SC[C@@H]2NC(=O)N[C@@H]21)C(=O)N[C@@H](CC(=O)O)C(=O)N[C@@H](CO)C(=O)N[C@@H](Cc1c[nH]cn1)C(=O)N[C@@H](CC(C)C)C(=O)NCC(=O)N[C@@H](CCC(=O)O)C(=O)N1CCC[C@H]1C(=O)N[C@@H](Cc1c[nH]cn1)C(=O)N[C@@H](CCCCN)C(=O)N[C@@H](Cc1ccccc1)C(=O)N[C@@H](CCCCN)C(=O)N[C@@H](CCCNC(=N)N)C(=O)N[C@@H](CCC(=O)O)C(=O)N[C@@H](C)C(=O)N[C@@H](C)C(=O)N[C@@H](CCC(=O)O)C(=O)N[C@@H](C)C(=O)N[C@@H](C)C(=O)N[C@@H](CCC(N)=O)C(=O)N[C@@H](C)C(=O)N[C@@H](C)C(=O)N[C@@H](CCC(=O)O)C(=O)O` [Biotin‐peptide‐TAT LOF] (HELM PEPTIDE1{[O=C1N[C@H]2[C@H](CS[C@H]2CCCCC(=O)[*:2])N1].L.Y.P.C.I.D.S.H.L.G.E.P.H.K.F.K.R.E.A.A.E.A.A.Q.A.A.E}$$$$V2.0) was tested, and the “peptide accumulation in tumor cells in vitro” value [1] was “substantially reduced peptide accumulation”.

For `COc1cc2nccc(Oc3ccc(NC(=O)NC4CC4)c(Cl)c3)c2cc1C(N)=O` [lenvatinib, reference compound], the “lipid accumulation in tumor tissues (Oil Red O)” value [2] was “reductions were also observed”, the “cell apoptosis in tumor tissues (TUNEL)” value [3] was “induced cell apoptosis in tumor tissues” and the “Insig1 S207/Insig2 S151 phosphorylation in tumors” value [4] was “reductions were also observed”. The “Ki67 expression in tumors” value [4] was “reductions were also observed” and the “SREBP1 expression and nuclear accumulation in tumors” value [4] was “reductions were also observed”.

B1: Insig1/2 loop 1 peptide (143-LYPCIDSHLGEPHKFKRE-160) (peptide)
chain: LYPCIDSHLGEPHKFKRE
B1 showed a Kd [5] of 36.8 µM and a Kd [6] of 10.5 µM.
